Reference: patent US10370364B1, “Substituted chromenes for treatment of fibrosis or non-alcoholic steatohepatitis” (OSTEONEUROGEN INC., priority 2018, dated 2019)
≈ marks a conversion by molar mass, not a printed value. Blank lines part the entries; values can stand above or below the molecule they belong to.

Key:
STAM mice = test: Non-alcoholic steatohepatitis animal model (STAM mice), NAFLD activity score; format: in vivo; details: 30 mpk oral
Protocol: STAM mice (SMC Laboratories, Inc., Japan), which are non-alcoholic steatohepatitis animal models, were used as experimental animals. These animal models were administered with streptozotocin immediately after birth, and fed with high-fat-diet after 3 weeks. Then, in the mouse model, non-alcoholic steatohepatitis occurred at 6 to 9 weeks, and liver fibrosis, cirrhosis and liver cancer occurred within 9 to 12 weeks.
Over 6 to 9 weeks after administration of streptozotocin, the compound of the present invention, dissolved in a mixture solution of Tween80 and 0.5% CMC aqueous solution (1:99 (v/v)) (Formulation Example 2), was orally administered to the animal models once a day (five times a week). As controls, telmisartan and OCA (obeticholic acid) were administered in the same manner.
At […] after administration of streptozotocin (a time point after 3-week administration of the compound), the mice were sacrificed, the liver of each mouse was dissected, the invasion of inflammatory cells was observed by […] of the liver tissue, and fibrosis of the liver tissue was observed by Sirius Red staining (see FIG. 42). In addition, the degrees of inflammation, fibrosis, liver cell ballooning and adipose accumulation observed were measured, data integration was performed, and the NAFLD (nonalcoholic fatty liver disease) activity score was statistically processed by t-test.

[1] = Solubility in phosphate buffer (pH 7.4); details: phosphate buffer pH 7.4, 1 mg/ml added, 16 hours, HPLC-UV
Protocol: The compound of the present invention was added to phosphate buffer (pH 7.4) at a concentration of 1 mg/ml and stirred. After 16 hours, the sample was filtered through a filter, and the supernatant was analyzed by HPLC-UV, thereby determining the content of compound dissolved.

C57BL/6 mice = test: Bleomycin-induced pulmonary fibrosis animal model; format: in vivo
Source text: 5-week-old male C57BL/6 mice (weighed 18.2 to 20.5 g) (KOATECH, Korea) were used as experimental animals and divided into several groups, each consisting of 5 animals.
The experimental animals were housed in a housing box having a size of 369 L×156 W×132H (mm) (EU, USA, UK GL compliance) made of a polysulfone material in a SPF (Specific Pathogen Free) and BSL (Bio Safety Level) 2 grade facility. The number of animals in each housing box was 2 to 3 during the period of quarantine and acclimatization and was also 2 to 3 during the experimental period, and the housing conditions were set to a temperature of 22±2° C., a relative humidity of 50.0±15.0%, a ventilation cycle of 10 to 20 times/hr, a light-dark cycle (a photoperiod) of 12 hr/day (07:00 to 19:00), and an illumination intensity of 150 to 300 Lux.
Pulmonary fibrosis was induced by injecting a bleomycin solution directly into the lungs via the trachea according to the intratracheal instillation (IT) method of Kremer, Laxer and Berkman et al. Specifically, C57BL/6J mice were anesthetized through inhalation with 70% N2O and 30% O2 gas and 1.5% isoflurane, and the skin of the anterior neck thereof was excised and the organs under the muscle thereof were exposed and then carefully excised using ophthalmic surgical scissors. 50 μL of a solution of bleomycin in distilled water was injected directly into the lungs all at once via the excised organ by use of a 1 mL syringe fitted with a 19-gauge injection needle having a blunt tip. Immediately after the injection, the excised skin of the anterior neck was sutured and the mice were allowed to recover from the anesthetic, and then housed in a general housing cage. The administration of bleomycin was performed using a visual instillobot, and bleomycin-HCl 40 μg/50 μL was administered once and a pulmonary fibrosis induction period of 12 days was set.
The compound of the present invention was used after dissolution in 30% HPCD aqueous solution (Formulation Example 5), and the dose for each individual was calculated based on the recent body weight thereof. 12 Days after the administration of bleomycin, the compound of the present invention was administered once a day (5 times a week) for 2 weeks. As a control, pirfenidone which is a therapeutic agent for idiopathic pulmonary fibrosis was administered in the same manner.
On 15 days after administration of the compound, the mice were sacrificed, and then the right lung of each mouse was dissected and the weight thereof was measured. […] In particular, it is noted that the inhibitory effect of the compound in the group administered at 10 mpk was the highest compared to that in the group administered at 50 or 100 mpk and was also higher than that in the group administered with pirfenidone 100 mpk.
The amounts of hydroxyproline (HP) and collagen in the dissected right lung were measured using a known method.
Histopathology collagen morphometry of the dissected left lung tissue was performed using a known method (calculating the area of collagen in an optical image obtained by Sirius red staining of the lung tissue sample).
The pathological conditions of the left lung tissue dissected using a known method were examined by H&E and Sirius Red staining. […] In particular, it is noted that the inhibitory effect of the compound in the group administered at 10 mpk was the highest compared to that in the groups administered at other concentrations.
In order to examine the effect of each treatment in this Experiment on the liver, the liver of each of the sacrificed mice was dissected, and the pathological conditions of the liver tissue were examined by H&E staining.

[2] = Concentration of compound in plasma and lung of bleomycin fibrotic mice; format: in vivo; details: 1 hour after final administration; pirfenidone 100 mpk, Compound 1 10-100 mpk PO
Protocol: The amounts of the compound present in the plasma and lung of each of the sacrificed mice (finally administered with each compound at 1 hour before sacrifice) were measured. […] If it is attempted to formulate the compound of the present invention in various manners, it is expected that the compound of the present invention can effectively treat fibrosis even at lower concentrations.

Structure (SMILES): CCCc1nc2c(C)cc(-c3nc4ccccc4n3C)cc2n1Cc1ccc(-c2ccccc2C(=O)O)cc1 [telmisartan, reference compound]
NAFLD activity score (t-test) (STAM mice): statistically significant anti-NASH effects

Solubility [1]: 4.50 µg/mL (≈ 16.8 µM)
Structure (SMILES): CC/C(=C(/CC)c1ccc(O)cc1)c1ccc(O)cc1 [Diethyl stilbesterol, reference compound]

Structure (SMILES): Cc1ccc(=O)n(-c2ccccc2)c1 [Pirfenidone, reference compound]
Protection Collagen % (C57BL/6 mice; 100 mpk PO): 34% | Mean Collagen % (histopathology collagen morphometry, left lung) (C57BL/6 mice; 100 mpk PO, Sirius red): 4.1% | pathological condition of liver tissue, H&E staining (C57BL/6 mice; bleomycin mice, 100 mpk): showed hepatotoxic symptoms | concentration of the compound in the lung [2]: high | concentration of the compound in the plasma [2]: high
